According to paper PMC10511702, “Design, molecular modelling and synthesis of novel benzothiazole derivatives as BCL-2 inhibitors” (Scientific Reports, 2023):

How the values were obtained:
recombinant BCL-2 = target: T1, recombinant BCL-2 (Homo sapiens, UniProt P10415); assay: In vitro BCL-2 inhibitory activity, TR-FRET assay (BPS Bioscience); type: binding; settings: for inhibition at 10 µM / BCL-2 inhibition %: single dose of 10 µM; for IC50: 5 concentrations 1 nM-10 µM
T1 construct: purchased BPS Bioscience 50272
Procedure: The in vitro enzyme inhibition determination for the synthesized compounds was carried out in BPS Bioscience Corporation, San Diego, CA, USA (www.bpsbioscience.com). […] The assay was performed by TR-FRET technology using a recombinant BCL-2 and a peptide- ligand substrate. The TR-FRET signal from the assay is correlated with the amount of Ligand binding to BCL-2. […] All of the binding reactions were conducted at room temperature. […] The reaction mixture incubated for 180 min prior to reading the TR-FRET signal. For the background, ligand was replaced with assay buffer. Fluorescence signals for both the donor and acceptor dyes were measured using a Tecan Infinite M1000 plate reader. TR-FRET was recorded as the ratio of the fluorescence of the acceptor and the donor dyes (acceptor/donor). Binding experiments were performed in duplicate at each concentration. The TR-FRET data were analyzed using the computer software, Graphpad Prism. In the absence of the compound in wells containing BCL-2 ligand, the TR-FRET signal (Ft) in each data set was defined as 100% activity. In wells without peptide ligand, the TR-FRET signal (Fb) in each data set was defined as 0% activity. The percent activity in the presence of each compound was calculated according to the following equation: % activity = [(F − Fb)/ (Ft − Fb)] × 100, where F = the TR-FRET signal in the presence of the compound. The percent inhibition was calculated according to the following equation: % inhibition = 100—% activity. IC50 determination for target compounds against BCL-2 was calculated. […] The IC50 value was determined by the concentration causing a half-maximal percent activity.

T1 sequence (P10415 whole entry): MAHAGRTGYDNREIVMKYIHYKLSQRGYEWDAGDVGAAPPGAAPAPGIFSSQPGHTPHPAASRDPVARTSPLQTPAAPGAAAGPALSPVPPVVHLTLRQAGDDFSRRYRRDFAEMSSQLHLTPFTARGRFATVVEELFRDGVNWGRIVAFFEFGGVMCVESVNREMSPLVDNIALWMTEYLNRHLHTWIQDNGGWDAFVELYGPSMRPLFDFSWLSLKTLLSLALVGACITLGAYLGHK

| Compound | inhibition at 10 µM (recombinant BCL-2) | melting point | IC50 (recombinant BCL-2) | inhibition at 0.1 µM (recombinant BCL-2; at 100 nM) | BCL-2 inhibition % (recombinant BCL-2) |
| --- | --- | --- | --- | --- | --- |
| O=C(c1ccc2nc(NS(=O)(=O)c3ccc4ccccc4c3)sc2c1)N1CCN(c2ccccc2)CC1 [7a, N-(6-(4-Phenylpiperazine-1-carbonyl)benzo[d]thiazol-2-yl)naphthalene-2-sulfonamide] | 0% | – | – | – | – |
| O=C(c1ccc2nc(NS(=O)(=O)c3ccc4ccccc4c3)sc2c1)N1CCN(c2ccccc2F)CC1 [7b, N-(6-(4-(2-Fluorophenyl)piperazine-1-carbonyl)benzo[d]thiazol-2-yl)naphthalene-2-sulfonamide] | 0% | 290 to 292 °C | – | – | – |
| COc1ccccc1N1CCN(C(=O)c2ccc3nc(NS(=O)(=O)c4ccc5ccccc5c4)sc3c2)CC1 [7c, N-(6-(4-(2-Methoxyphenyl)piperazine-1-carbonyl)benzo[d]thiazol-2-yl)naphthalene-2-sulfonamide] | 2% | 258 to 260 °C | – | – | – |
| O=C(c1ccc2nc(NS(=O)(=O)c3ccc4ccccc4c3)sc2c1)N1CCN(C(c2ccccc2)c2ccccc2)CC1 [7f, N-(6-(4-Benzhydrylpiperazine-1-carbonyl)benzo[d]thiazol-2-yl)naphthalene-2-sulfonamide] | 7% | 200 to 202 °C | – | – | – |
| O=C(c1ccc2nc(NS(=O)(=O)c3ccc4ccccc4c3)sc2c1)N1CCN(C/C=C/c2ccccc2)CC1 [7g, (E)-N-(6-(4-Cinnamylpiperazine-1-carbonyl)benzo[d]thiazol-2-yl)naphthalene-2-sulfonamide] | 7% | 240 to 242 °C | – | – | – |
| O=C(c1ccc2nc(NS(=O)(=O)c3ccc4ccccc4c3)sc2c1)N1CCN(Cc2ccc3c(c2)OCO3)CC1 [7h, N-(6-(4-(Benzo[d]dioxol-5-ylmethyl)piperazine-1-carbonyl)benzo[d]thiazol-2-yl)naphthalene-2-sulfonamide] | 1% | 178 to 180 °C | – | – | – |
| O=C(c1ccc2nc(NS(=O)(=O)c3ccc4ccccc4c3)sc2c1)N1CCN(C(=O)C2CCCO2)CC1 (stereo not drawn) [7i, N-(6-(4-(Tetrahydrofuran-2-carbonyl)piperazine-1-carbonyl)benzo[d]thiazol-2-yl)naphthalene-2-sulfonamide] | 4% | 230 to 232 °C | – | – | – |
| O=C(Nc1ccc(OCc2cccc(F)c2)cc1)c1ccc2nc(NS(=O)(=O)c3ccc4ccccc4c3)sc2c1 [8a, N-(4-((3-Fluorobenzyl)oxy)phenyl)-2-(naphthalene-2-sulfonamido)-benzo[d]thiazole-6-carboxamide] | 41% | 146 to 148 °C | – | – | – |
| O=C(Nc1ccc(OCc2cccc(Cl)c2)cc1)c1ccc2nc(NS(=O)(=O)c3ccc4ccccc4c3)sc2c1 [8b, N-(4-((3-Chlorobenzyl)oxy)phenyl)-2-(naphthalene-2-sulfonamido)benzo[d]thiazole-6-carboxamide] | 16% | 198 to 200 °C | – | – | – |
| O=C(Nc1ccc(OCc2ccc(Cl)cc2)cc1)c1ccc2nc(NS(=O)(=O)c3ccc4ccccc4c3)sc2c1 [8c, N-(4-((4-Chlorobenzyl)oxy)phenyl)-2-(naphthalene-2-sulfonamido)benzo[d]thiazole-6-carboxamide] | 48% | 296 to 298 °C | – | – | – |
| O=C(Nc1ccc(OCc2ccc(Br)cc2)cc1)c1ccc2nc(NS(=O)(=O)c3ccc4ccccc4c3)sc2c1 [8d, N-(4-((4-Bromobenzyl)oxy)phenyl)-2-(naphthalene-2-sulfonamido)benzo[d]thiazole-6-carboxamide] | > 60% | ≥ 300 °C | 1620 nM | – | – |
| Cc1ccc(COc2ccc(NC(=O)c3ccc4nc(NS(=O)(=O)c5ccc6ccccc6c5)sc4c3)cc2)cc1 [8e, N-(4-((4-Methylbenzyl)oxy)phenyl)-2-(naphthalene-2-sulfonamido)benzo[d]thiazole-6-carboxamide] | 13% | ≥ 300 °C | – | – | – |
| O=C(Nc1ccc(OCc2ccc(C(F)(F)F)cc2)cc1)c1ccc2nc(NS(=O)(=O)c3ccc4ccccc4c3)sc2c1 [8f, N-(4-((4-Trifluormethylbenzyl)oxy)phenyl)-2-(naphthalene-2-sulfonamido)benzo-[d]thiazole-6-carboxamide] | 14% | ≥ 300 °C | – | – | – |
| CC1(C)CCC(CN2CCN(c3ccc(C(=O)NS(=O)(=O)c4ccc(NCC5CCOCC5)c([N+](=O)[O-])c4)c(Oc4cnc5[nH]ccc5c4)c3)CC2)=C(c2ccc(Cl)cc2)C1 [ABT-199 (20), reference compound] | – | – | – | 92% | – |
| N-(6-(4-(3,4-Dichlorophenyl)piperazine-1-carbonyl)benzo[d]thiazol-2-yl)naphthalene-2-sulfonamide [7e] | – | – | – | – | 0% |
| N-(6-(4-(4-Chlorophenyl)piperazine-1-carbonyl)benzo[d]thiazol-2-yl)naphthalene-2-sulfonamide [7d] | – | – | – | – | 8% |

More lines, now with the values ahead:

| inhibition at 10 µM (recombinant BCL-2) | melting point | IC50 (recombinant BCL-2) | inhibition at 0.1 µM (recombinant BCL-2; at 100 nM) | BCL-2 inhibition % (recombinant BCL-2) | Compound |
| --- | --- | --- | --- | --- | --- |
| 9% | 294 to 296 °C | – | – | – | O=C(Nc1ccc(Oc2ccc(Cl)c(F)c2)cc1)c1ccc2nc(NS(=O)(=O)c3ccc4ccccc4c3)sc2c1 [9a, N-(4-(4-Chloro-3-fluorophenoxy)phenyl)-2-(naphthalene-2-sulfonamido)benzo[d]thiazole-6-carboxamide] |
| 9% | 280 to 282 °C | – | – | – | O=C(Nc1ccc(Oc2ccc(Br)cc2)cc1)c1ccc2nc(NS(=O)(=O)c3ccc4ccccc4c3)sc2c1 [9b, N-(4-(4-Bromophenoxy)phenyl)-2-(naphthalene-2-sulfonamido)benzo[d]thiazole-6-carboxamide] |
| 15% | 184 to 186 °C | – | – | – | COc1ccccc1N1CCN(C(=O)c2ccc3nc(NC(=O)c4ccc(NCCc5ccccc5)c([N+](=O)[O-])c4)sc3c2)CC1 [12a, N-(6-(4-(2-Methoxyphenyl)piperazine-1-carbonyl)benzo[d]thiazol-2-yl)-3-nitro-4-(phenethylamino)benzamide] |
| 18% | 176 to 178 °C | – | – | – | O=C(Nc1nc2ccc(C(=O)N3CCN(c4ccc(Cl)c(Cl)c4)CC3)cc2s1)c1ccc(NCCc2ccccc2)c([N+](=O)[O-])c1 [12b, N-(6-(4-(3,4-Dichlorophenyl)piperazine-1-carbonyl)benzo[d]thiazol-2-yl)-3-nitro-4-(phenethylamino)benzamide] |
| 18% | 170 to 172 °C | – | – | – | O=C(Nc1nc2ccc(C(=O)N3CCN(C(c4ccccc4)c4ccccc4)CC3)cc2s1)c1ccc(NCCc2ccccc2)c([N+](=O)[O-])c1 [12c, N-(6-(4-Benzhydrylpiperazine-1-carbonyl)benzo[d]thiazol-2-yl)-3-nitro-(phenethylamino)-benzamide] |
| 14% | 244 to 246 °C | – | – | – | O=C(Nc1nc2ccc(C(=O)N3CCN(C/C=C/c4ccccc4)CC3)cc2s1)c1ccc(NCCc2ccccc2)c([N+](=O)[O-])c1 [12d, (E)-N-(6-(4-Cinnamylpiperazine-1-carbonyl)benzo[d]thiazol-2-yl)-3-nitro-4-(phenethyl-amino)benzamide] |
| 8% | 134 to 136 °C | – | – | – | O=C(Nc1nc2ccc(C(=O)N3CCN(C(=O)C4CCCO4)CC3)cc2s1)c1ccc(NCCc2ccccc2)c([N+](=O)[O-])c1 (stereo not drawn) [12e, 3-Nitro-4-(phenethylamino)-N-(6-(4-(tetrahydrofuran-2-carbonyl)piperazine-1-carbonyl)-benzo[d]thiazol-2-yl)benzamide] |
| 35% | 260 to 262 °C | – | – | – | O=C(Nc1ccc(OCc2cccc(Cl)c2)cc1)c1ccc2nc(NC(=O)c3ccc(NCCc4ccccc4)c([N+](=O)[O-])c3)sc2c1 [13a, N-(4-((3-Chlorobenzyl)oxy)phenyl)-2-(3-nitro-4-(phenethylamino)benzamido) benzo[d]thiazole-6-carboxamide] |
| > 60% | 260 to 262 °C | 1090 nM | – | – | O=C(Nc1ccc(OCc2ccc(Br)cc2)cc1)c1ccc2nc(NC(=O)c3ccc(NCCc4ccccc4)c([N+](=O)[O-])c3)sc2c1 [13b, N-(4-((4-Bromobenzyl)oxy)phenyl)-2-(3-nitro-4-(phenethylamino)benzamido)-benzo[d]thiazole-6-carboxamide] |
| 20% | 196 to 198 °C | – | – | – | O=C(Nc1ccc(Oc2ccc(Cl)c(F)c2)cc1)c1ccc2nc(NC(=O)c3ccc(NCCc4ccccc4)c([N+](=O)[O-])c3)sc2c1 [14a, N-(4-(4-Chloro-3-fluorophenoxy)phenyl)-2-(3-nitro-4-(phenethylamino)benzamido)-benzo[d]thiazole-6-carboxamide] |
| 47% | 212 to 214 °C | – | – | – | O=C(Nc1ccc(Oc2ccc(Br)cc2)cc1)c1ccc2nc(NC(=O)c3ccc(NCCc4ccccc4)c([N+](=O)[O-])c3)sc2c1 [14b] |
| 0% | ≥ 300 °C | – | – | – | O=C(Nc1ccccc1)Nc1ccc2nc(NS(=O)(=O)c3ccc4ccccc4c3)sc2c1 [17a, N-(6-(3-Phenylureido)benzo[d]thiazol-2-yl)naphthalene-2-sulfonamide] |
